Several values for one entry are separate records, joined by “and”; a condition that tells them apart may be missing. Identical values can stand only once.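 Five compound concentrations were applied to cells in 96-well plates for 48 hours; endpoints were derived by simple linear interpolation of the resulting dose-response curve. GI50 marks 50% less growth. TGI is the concentration that stops growth completely.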
Columns and labels:
Assay in all cases: growth of human tumour cells (NCI), 48 h
A498 renal = test system: A498 renal
COLO 205 colon = test system: COLO 205 colon
HCC-2998 colon = test system: HCC-2998 colon
HOP-62 NSCLC = test system: HOP-62 NSCLC
KM12 colon = test system: KM12 colon
LOX IMVI melanoma = test system: LOX IMVI melanoma
NCI-H460 lung = test system: NCI-H460 lung
SF-268 CNS = test system: SF-268 CNS
SK-MEL-2 melanoma = test system: SK-MEL-2 melanoma
T-47D breast = test system: T-47D breast

Structure (SMILES)	GI50 (A498 renal) [µM]	TGI (A498 renal) [µM]	GI50 (COLO 205 colon)	TGI (COLO 205 colon) [µM]	GI50 (HCC-2998 colon)	TGI (HCC-2998 colon)	GI50 (HOP-62 NSCLC)	TGI (HOP-62 NSCLC) [µM]	GI50 (KM12 colon)	TGI (KM12 colon) [µM]	GI50 (LOX IMVI melanoma)	TGI (LOX IMVI melanoma) [µM]	GI50 (NCI-H460 lung)	TGI (NCI-H460 lung)	GI50 (SF-268 CNS) [µM]	TGI (SF-268 CNS) [µM]	GI50 (SK-MEL-2 melanoma) [µM]	TGI (SK-MEL-2 melanoma) [µM]	GI50 (T-47D breast)	TGI (T-47D breast)
S=C(N/N=C/c1ccccn1)Nc1ccccn1	1.62	33.9	0.471 µM	> 100	2.19 µM	> 100 µM	1.73 µM	9.22	2.87 µM	> 100	0.705 µM	23.1	0.962 µM	12.6 µM	2.29	> 100	2.35	9.74	1.93 µM	90.7 µM
O=C1c2ccccc2-c2c1c1ccccc1c(=O)n2CCNCCNCCn1c2c(c3ccccc3c1=O)C(=O)c1ccccc1-2	14.4	29.9	2.62 µM	> 60.8	0.279 µM	14.9 µM	0.0288 µM	4.5	0.0327 µM	1.72	0.0437 µM	1.76	0.0246 µM	7.59 µM	0.241	10	19.1	> 48.2	18.1 µM	41.5 µM
Cc1cc(S(=O)(=O)Nc2nnc(-c3ccccc3)c(-c3ccccc3)n2)c(SCc2ccccc2)cc1Cl	19.8	39.1	23.6 µM	48	27.3 µM	43.8 µM	22.9 µM	39.6	18.5 µM	43.1	26.2 µM	50.2	23.8 µM	65.7 µM	19.3	39.9	–	–	23.8 µM	52.3 µM
CCN(CC)CCCCCCCNc1c2ccc(Cl)cc2nc2ccc(OC)cc12	1.2	2.51	1.09 µM	2.48	1.76 µM	3.22 µM	0.943 µM	2.54	0.649 µM	2.17	0.275 µM	1.17	0.416 µM	1.67 µM	1.03	2.5	1.56	3.77	2.24 µM	4.97 µM
CC1(C)OCC(CO)(Nc2nc(N3CC3)nc(N3CC3)n2)CO1	–	24.2	–	60.9	–	36.3 µM	–	30.9	–	43.3	–	32.4	–	29 µM	–	27.6	–	40	–	45 µM
Cc1ccc2c(=O)c3cccc(CC(=O)O)c3oc2c1C	70.6	> 100	> 100 µM	> 100	> 100 µM	> 100 µM	> 100 µM	> 100	> 100 µM	> 100	> 100 µM	> 100	> 100 µM	> 100 µM	> 100	> 100	> 100	> 100	> 100 µM	> 100 µM
CCOC(=O)Oc1c(OC)cc(C(=O)O[C@@H]2C[C@@H]3CN4CCc5c([nH]c6cc(OC)ccc56)[C@H]4C[C@@H]3[C@H](C(=O)OC)[C@H]2OC)cc1OC	7.38	> 100	10.3 µM	24.1	5.06 µM	20 µM	11.7 µM	25.2	4.7 µM	17.7	2.91 µM	14.7	3.8 µM	16.6 µM	8.07	27.5	12.1	28.3	2.97 µM	20.1 µM
CN(C)c1ccc2c3c(c(=O)oc2c1)CCC3	–	> 100	–	> 100	–	> 100 µM	–	> 100	–	> 100	–	> 100	–	> 100 µM	–	> 100	–	> 100	–	> 100 µM
Nc1ccccc1C#C/C=C\C#Cc1ccc(Cl)cc1Cl	12.6	27	23.8 µM	> 100	3.37 µM	9.58 µM	16.6 µM	32.8	2.72 µM	14.4	11 µM	26.5	10.7 µM	26.5 µM	4.38	23.7	25	70.1	18.9 µM	78.5 µM
O=C(NC(=S)Nc1ccc(Cl)cc1)c1ccccc1	33	> 100	> 100 µM	> 100	> 100 µM	> 100 µM	> 61.7 µM	> 100	> 100 µM	> 100	> 100 µM	> 100	> 100 µM	> 100 µM	76	> 100	> 100	> 100	> 90.3 µM	> 100 µM
N=C(N)CCCCCCCCC(=N)N	11.6	68.5	7.86 µM	20.9	28.5 µM	> 100 µM	30.9 µM	> 100	21.1 µM	> 100	31.8 µM	> 100	18.8 µM	> 100 µM	42.6	> 100	> 100	> 100	25 µM	> 100 µM
CCOC(CN=c1nc(N(C)C)ss1)OCC	–	> 100	–	7.28	–	> 100 µM	–	> 100	–	38.9	–	31.2	–	> 94.4 µM	–	59.8	–	48.9	–	> 63.7 µM
C[C@]12CCC(=O)C(O)=C1CC[C@@H]1[C@@H]2CC[C@]2(C)C(=O)CC[C@@H]12	–	> 100	–	> 100	–	> 100 µM	–	> 100	–	> 100	–	> 100	–	> 100 µM	–	> 100	–	> 100	–	> 100 µM
CCN(CC)CCOc1ccc(/C=C2\CC3C4CC=C5C[C@@H](N6CCCC6)CC[C@]5(C)C4CC[C@]3(C)[C@H]2O)cc1OC (stereo partly specified)	0.0502	1.46	5.4 µM	23	1.71 µM	4.79 µM	5.82 µM	15.3	2.67 µM	11.9	1.92 µM	5.28	14.2 µM	65.7 µM	11.8	> 76.6	9.64	> 100	7.75 µM	22.6 µM
COc1cc(/C=C/C(=O)c2ccc(Cl)cc2)ccc1OS(=O)(=O)c1ccc(C)cc1	28.8	> 100	12.3 µM	39.7	12.4 µM	26.7 µM	30 µM	92	3.63 µM	13.8	1.93 µM	3.67	17.3 µM	72.4 µM	7.17	34	12.3	28.8	9.27 µM	28.6 µM
C=C1C(=O)OC2CC3(CO3)C3C(O)C(O)CC3(C)CC12 (stereo unspecified)	–	64.2	–	81.2	–	33.9 µM	–	> 100	–	> 100	–	23.5	–	> 100 µM	–	> 100	–	38.4	–	> 100 µM
COc1ccc(/C=C\c2cc(OC)c(OC)c(OC)c2)cc1OCC(=O)Nc1nc2ccc(C(F)(F)F)cc2s1	2.81	18.6	17.1 µM	68	4.23 µM	> 100 µM	5.22 µM	> 100	3.14 µM	11.5	4.01 µM	> 100	3.55 µM	> 100 µM	3.85	48.6	3.98	> 100	4.79 µM	> 100 µM
O=C1C=Cc2ccccc2/C1=C/c1[nH]c(=O)[nH]c1O	2.87	10.6	3.59 µM	31.9	7.43 µM	> 100 µM	7.5 µM	35	2.99 µM	9.34	7 µM	> 100	9.71 µM	30.9 µM	7.27	> 100	2.97	8.71	2.5 µM	25.6 µM
O=C(Nc1ncc(Cc2ccccc2Cl)s1)c1ccc2c(c1)OCCO2	0.151	0.693	0.318 µM	3.55	0.468 µM	> 55.5 µM	0.592 µM	> 82.9	0.322 µM	> 35.6	0.583 µM	> 100	0.352 µM	> 44.1 µM	1.8	> 100	0.667	> 69.6	0.333 µM	> 100 µM
COc1ccc(-c2nc(-c3cn(C)c4ncccc34)cs2)cc1	0.776	93.9	29 µM	> 100	80.6 µM	> 100 µM	> 100 µM	> 100	8.01 µM	> 100	54.1 µM	> 100	32.9 µM	> 100 µM	82.6	> 100	55.3	> 100	12.5 µM	> 100 µM
CC1(C)N=C(N)N=C(N)N1c1cc(Cl)ccc1Cl	> 100	> 100	> 100 µM	> 100	> 100 µM	> 100 µM	> 100 µM	> 100	> 100 µM	> 100	> 100 µM	> 100	60.6 µM	> 100 µM	> 100	> 100	> 100	> 100	> 100 µM	> 100 µM
O=C(Nc1ccc(Cl)cc1)c1cc2ccccc2cc1O	2.23	8.37	3.22 µM	18.7	2.55 µM	7.65 µM	3.34 µM	> 100	2.81 µM	> 100	2.36 µM	18.2	2.67 µM	> 100 µM	3.68	> 100	2.87	13.1	1.11 µM	9.49 µM
CCSc1nc(N=Cc2cccs2)c2cn[nH]c2n1	10.9	38.1	10.9 µM	24.9	2.87 µM	11.3 µM	53.8 µM	> 100	3.31 µM	16.1	7.89 µM	> 100	14.5 µM	> 100 µM	6.49	> 100	26.2	> 100	23.6 µM	95 µM
COc1ccc(-c2cn[nH]c2-c2cc(OC)c(OC)c(OC)c2)cc1N	< 0.01	–	< 0.01 µM and 0.0347 µM	–	< 0.01 µM and 0.0317 µM	93.6 µM and 32.1 µM	< 0.01 µM and 0.0766 µM	> 100	< 0.01 µM and 0.026 µM	> 100	< 0.01 µM and 0.0436 µM	> 100	< 0.01 µM and 0.0343 µM	13.3 µM and > 38.5 µM	–	> 100	–	> 100	17.1 µM and 25 µM	77.4 µM and > 100 µM
CC(=O)OC(C)(C)/C=C/C(=O)[C@](C)(O)[C@H]1[C@H](O)C[C@@]2(C)[C@@H]3CC=C4[C@@H](C[C@H](O)C(=O)C4(C)C)[C@]3(C)C(=O)C[C@]12C	–	< 0.01	–	–	–	4.45 µM	–	–	–	13.6	–	< 0.01	–	1.37 µM	–	< 0.01	–	< 0.01	–	0.543 µM
O=C1CCC2(C=C(Br)C(=O)C(Br)=C2)O1	16.6	30.3	1.52 µM	2.98	18.7 µM	33.5 µM	20.8 µM	39.8	17.4 µM	31.3	2.53 µM	7.53	19.6 µM	38.6 µM	15.1	28.6	15	30.3	2.22 µM	5.04 µM
O=[N+]([O-])/C=C/c1c[nH]c2ccccc12	16.2	31.2	15.6 µM	30.6	4.35 µM	12.5 µM	21.4 µM	36.5	14.6 µM	31	15.9 µM	30.2	17 µM	46.3 µM	16	40.5	18.6	37.8	15 µM	37.7 µM
CC(C)(O)C1OCC(C2CCC3(C)C4=CCC5C(C)(C)C(O)CCC5(C)C4CCC23C)CC1O (stereo unspecified)	–	30.4	–	31.5	–	30.1 µM	–	–	–	27	–	42.7	–	26.1 µM	–	30.4	–	48.7	–	26.6 µM

— PubChem BioAssay (NCI)
